The target of assay [1] is T1, dephosphorylated Aurora A kinase (Homo sapiens, UniProt O14965).
T1 construct: Codon-optimized Aurora A^122-403 in pET28a and untagged λPP in T7-7 plasmid were co-transformed in BL21(DE3) cells; inferred from pET28a and the NiNTA column) (cleaved yes); made in house; host or cells: E. coli BL21(DE3), co-expressed with lambda protein phosphatase
T1 sequence (O14965 122-403): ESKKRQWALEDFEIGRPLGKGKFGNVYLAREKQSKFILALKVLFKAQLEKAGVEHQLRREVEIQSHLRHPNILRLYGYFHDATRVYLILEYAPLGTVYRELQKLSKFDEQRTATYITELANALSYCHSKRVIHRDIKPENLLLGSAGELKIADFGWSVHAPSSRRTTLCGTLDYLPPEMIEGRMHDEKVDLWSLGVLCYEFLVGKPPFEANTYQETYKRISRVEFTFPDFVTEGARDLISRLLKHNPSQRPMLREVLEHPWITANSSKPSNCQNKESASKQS
Kind of assay: Isothermal titration calorimetry (ITC) binding to dephosphorylated Aurora A kinase. On the procedure:
Titrations were carried out using Nano ITC isothermal titration calorimeter (TA Instruments) and analyzed via the NanoAnalyze software using the independent fit model. Injectant was added in 1 μl volume, every 180 s, with a constant stirring speed at 350 rpm and at 25° C. Prior to ITC titration, both protein and TPX2 or monobody were dialyzed/resuspended in ITC buffer (20 mM TrisHCl, 200 mM NaCl, 3% (vol/vol) glycerol, 1 mM TCEP, pH 7.50).

Assay [2] deals with HeLa cells. Nature of the assay: Cell imaging of synchronized HeLa cells treated with PS48 (Aurora A localization, mitotic progression). The assay is classed as cell-based, human. The text has this: FIG. 30 is a schematic showing a summary of a protocol used for cell synchronization experiments described herein to visualize effects of PS48 on TPX2 and Aurora A interaction in vivo.
The physiological importance of the Aurora A-TPX2 interaction was then investigated through experiments using PS48 to disrupt the Aurora A-TPX2 interaction in vivo. As described herein, during the transition to mitosis, Aurora A kinase is known to localize to the centrosomes and the spindle, with levels and activity of Aurora A kinase peaking during this point. TPX2 activates Aurora A kinase and targets Aurora A kinase to the spindle during mitosis. Thus, to observe effects of disruption of the Aurora A-TPX2 interaction on the biological in vivo activities of Aurora A kinase, cells in the experiment needed to be synchronized. The live cell imaging experiments to monitor Aurora A kinase and TPX2 in vivo interaction herein were performed using HeLa cells; however, HEK293 cells may also be used (FIGS. 33-35).
To monitor mitotic progression over time with fine resolution, in addition to staining DNA, phosphorylated histone H3 (“H3_P”) was also stained to monitor levels of H3_P in cells during live cell imaging (FIG. 31). Phosphorylation of Ser10 of histone H3 is considered to be a temporal marker of mitotic progression. […]

Assay [3] relates to HeLa cells. Nature of the assay: HeLa cell viability with PS48. The format is cell-based, human. Particulars: FIG. 39.

Entries after “also recorded” stand apart in the source; their conditions may differ. Where two headings read alike, the source gives them in different places.

With `O=C(O)/C=C(/CCc1ccc(Cl)cc1)c1ccccc1` [PS48], the Kd (in general, the constant that tells how readily two partners part at equilibrium) was ~85 µM in assay [1] (Aurora A saturated with danusertib, FIGS. 3C-3D, read-out: Kd of PS48 binding to dephosphorylated Aurora A kinase) and ~46 µM in assay [1] (ITC, FIG. 3B, read-out: Kd of binding of PS48 to Aurora A kinase). Moreover, the “localization of Aurora A to the spindle during mitosis” value in assay [2] (HeLa cells treated with PS48, FIGS. 36-37) was “not observed at the spindles”. The “progression of HeLa cells through mitosis” value in assay [2] (presence of PS48 vs DMSO, FIG. 38) is reported as “prolonged”. Moreover, in assay [3], the HeLa cell viability entry is listed as “PS48-dose dependent; also recorded: decreased cell viability”.

(Values after patent publication US11266616B2, “Compositions and methods for inhibiting kinase activity” (BRANDEIS UNIVERSITY, priority 2016, dated 2022).)
